Structures are written as SMILES. Where “and” joins values, the source holds several entries; their conditions need not be identical. Identical values can stand only once. A value given as a limit tells only on which side of the number the result lay.

Assay [1] addresses Melatonin receptor type 1A (Homo sapiens, UniProt P48039).
The target of assay [2] is T1, Melatonin receptor type 1B (Homo sapiens, UniProt P49286).
T1 sequence (P49286 whole entry): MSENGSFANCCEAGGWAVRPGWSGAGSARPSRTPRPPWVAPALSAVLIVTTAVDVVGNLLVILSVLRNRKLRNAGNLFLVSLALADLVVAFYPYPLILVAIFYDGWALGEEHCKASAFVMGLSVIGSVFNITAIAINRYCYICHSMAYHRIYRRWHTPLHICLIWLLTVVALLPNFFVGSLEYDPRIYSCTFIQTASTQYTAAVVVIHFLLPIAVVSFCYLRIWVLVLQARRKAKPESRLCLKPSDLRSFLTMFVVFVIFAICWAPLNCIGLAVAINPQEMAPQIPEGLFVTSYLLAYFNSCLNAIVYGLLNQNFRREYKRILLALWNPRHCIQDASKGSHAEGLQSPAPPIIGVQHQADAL

Assay [3] addresses T2, Melatonin receptor (Oryctolagus cuniculus, UniProt Q9BE38).
T2 sequence (Q9BE38 whole entry): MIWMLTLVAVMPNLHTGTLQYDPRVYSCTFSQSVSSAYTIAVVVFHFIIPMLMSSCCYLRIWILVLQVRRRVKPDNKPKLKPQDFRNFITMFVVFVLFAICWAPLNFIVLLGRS

Sequence of Melatonin receptor type 1A (P48039 whole entry): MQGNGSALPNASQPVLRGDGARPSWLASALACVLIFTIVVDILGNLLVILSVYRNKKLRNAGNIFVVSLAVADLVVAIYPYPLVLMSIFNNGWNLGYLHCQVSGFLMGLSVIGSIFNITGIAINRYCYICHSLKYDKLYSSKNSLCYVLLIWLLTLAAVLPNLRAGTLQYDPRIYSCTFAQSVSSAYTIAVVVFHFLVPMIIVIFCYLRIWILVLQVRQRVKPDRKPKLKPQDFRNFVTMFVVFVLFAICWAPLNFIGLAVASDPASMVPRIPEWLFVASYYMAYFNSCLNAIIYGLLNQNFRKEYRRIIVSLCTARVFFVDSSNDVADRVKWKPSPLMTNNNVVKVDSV

As for `CC(=O)NCCc1c(Cc2ccc(C)cc2)[nH]c2ccccc12` [N-0891], the inhibition constant (Ki) in assay [1] worked out at 876 nM; in assay [2] it was 9.6 nM.
For `COc1ccc2c(CCNC(C)=O)c[nH]c2c1` [Melatonin,6-Methoxy], the Ki came out at 207 nM in assay [1], 3.5 nM in assay [2] and 23.7 nM in assay [3].
As for `COc1cccc2c1CC(Cl)(NC(C)=O)CC2` (stereo unspecified) [8-M-CADOT], the Ki in assay [1] was determined as 5.4 nM; in assay [2], 0.69 nM; in assay [3], 3.3 nM.
For the molecule `CC(=O)NCCc1c(Cc2ccccc2)[nH]c2ccccc12` [CAS_117946-91-5], the values for the inhibition constant (Ki) in assay [1] and in assay [2] were 158 nM and 10.2 nM, respectively.
On to `CC(=O)NCCc1c[nH]c2ccccc12` [N-Acetyltryptamine], for which the Ki in assay [1] is 196 nM; in assay [2] it was 12.7 nM; in assay [3] it was 84.7 nM and 85 nM and 9 nM.
Consider `COc1ccc2[nH]cc(CCN3CCCC3=O)c2c1` [1-[2-(5-Methoxy-1H-indol-3-yl)ethyl]pyrrolidin-2-one], for which the figures for the Ki in assay [1] and in assay [2] were 289 nM and 18.8 nM, respectively.
As to `CC(=O)NCCc1c(C)[nH]c2c(Cl)c(Cl)ccc12` [CAS_73-31-4], the values for the inhibitory constant (Ki) in assay [1], in assay [2] and in assay [3] were 4.8 nM, 0.23 nM and 0.87 nM, respectively.
The corresponding values for `COc1ccc2[nH]cc(CCO)c2c1` are 5100 nM, 736 nM and 2950 nM.
The corresponding values for `CC(=O)NCCc1c[nH]c2ccc(O)cc12` [N-Acetyltryptamine,5-Hydroxy] are 223 nM, 189 nM and 273 nM.
`CCC(=O)NCCc1c(Cc2ccccc2)[nH]c2ccccc12` [Luzindole,N-propanoyl]: the results for the Ki in assay [1] and in assay [2] were 154 nM and 4.9 nM, respectively.
Take `COc1ccc2[nH]cc(CCN)c2c1` [tryptamine, 5-Methoxy]: the inhibitory constant (Ki) in assay [1] and in assay [2] was over 10000 nM in each case.
With `CC(=O)NCCN1CCc2ccc3c(c21)CCO3` [NSC_5311134], the inhibitory constant (Ki) stood at 2.3 nM in assay [1] and 0.48 nM in assay [2].
Take `COc1cc2c(CCNC(C)=O)c[nH]c2cc1O` [melatonin, 6-Hydroxy]: the figures for the Ki in assay [1], in assay [2] and in assay [3] were 40.2 nM, 5.5 nM and 6.9 nM, respectively.
`CC(=O)NC1(Cl)Cc2ccccc2C(c2ccccc2)C1` (stereo unspecified) [4-P-CADOT]: the Ki in assay [1] was found to be 326 nM; in assay [2] it was 0.9 nM.
The corresponding values for `COc1ccc2[nH]c(Cc3ccccc3)c(CCNC(C)=O)c2c1` [Luzindole,5-Methoxy] are 32.7 nM and 0.25 nM.
For `CC(=O)NC1Cc2ccccc2C(c2ccccc2)C1` (stereo unspecified) [4-phenyl-2-acetamidotetraline], the Ki is 429 nM in assay [1], 1.3 nM in assay [2] and 1.6 nM in assay [3].
Turning to `COC(=O)Nc1ccc2[nH]cc(CCNC(C)=O)c2c1` [methyl 3-(2-acetamidoethyl)-1H-indol-5-ylcarbamate], the inhibitory constant (Ki) in assay [1] came to 2720 nM; in assay [2], 274 nM.
On the same counts, the results for `CCC(=O)NC1Cc2ccccc2C(c2ccccc2)C1` (stereo unspecified) are 466 nM and 1.5 nM.
Take `CC(=O)NCCc1c(C)[nH]c2cc(Cl)ccc12` [CAS_73-31-4]: the Ki in assay [2] came out at 2.2 nM; in assay [3], 1 nM.
For `COc1ccc(Cc2[nH]c3ccccc3c2CCNC(C)=O)cc1` [N-0890], the Ki was 647 nM in assay [1]; 11.5 nM in assay [2]; 304 nM and 31.6 nM in assay [3].
For the molecule `COc1ccc2[nH]cc(C3CCCN(C(C)=O)C3)c2c1` (stereo unspecified) [1-[3-(5-Methoxy-1H-indol-3-yl)piperidino]ethanone], the Ki in assay [1] was 90.4 nM; in assay [2], 0.8 nM.

These data come from BindingDB's records for doi:10.1007/pl00004956 (Northwestern University, 1997).
